From patent publication US20050085432A1, “Methods of using conjugates of saccharides and acetamidino or guanidino compounds for treating bacterial infections” (priority 2001, published 2005)

Key:
[1] = system: RNase P derived from N. gonnorhoeae; assay: RNase P activity assay (ptRNA processing), reconstituted N. gonnorhoeae RNase P; type: biochemical, Neisseria gonnorhoeae; details: FIG. 3
Description: (§1) Polynucleotide sequences of Neisseria gonnorhoeae, Porphyromonas gingivalis and Streptococcus pneumoniae (SEQ ID NOS: 1, 3 and 5, respectively) expressing amino acid (SEQ ID NOS: 2, 4 and 6, respectively) subunits of RNase P were PCR amplified using standard PCR methodology. The genes encoding the RNA subunit of RNase P were cloned into pUC19 under the transcriptional control of a T7 RNA polymerase promoter. T7 RNA polymerase-mediated run-off in vitro transcription was performed on individual clones to generate the respective RNase P RNAs, which were then purified using Quick Spin columns. cDNAs encoding the protein subunits of the various bacterial species were subcloned into either expression vectors: pCRT7TOPO or pBAD (Invitrogen, Carlsbad, Calif.). Proteins were over-expressed in E. coli as His6-tagged fusion proteins and purified to homogeneity using a combination of cation exchange and immobilized metal affinity chromatography.
(§2) RNase P activity was determined in the presence or absence of AAC inhibitors suspended in 50 mM Tris-Hcl (7.2), 5 % (w/v) polyethylene glycol 8000, 1 mM NH4Cl, 10 mM spermidine, 10 mM MgCl2. Reactions were carried under multiple-tumover conditions (for example, 100 nM of radio-labeled ptRNA^Tyrsu3+ and 0.5 nM E. coli RNase P holoenzyme). […]
(§3) Extent of substrate cleavage was quantified using a PhosphorImager (Molecular Dynamics) and ImageQuant softwares.

[2] = system: RNase P derived from P. gingivalis; assay: RNase P activity assay (ptRNA processing), reconstituted P. gingivalis RNase P; type: biochemical, Porphyromonas gingivalis; details: FIG. 3
Chain of RNase P derived from P. gingivalis (as listed by the source): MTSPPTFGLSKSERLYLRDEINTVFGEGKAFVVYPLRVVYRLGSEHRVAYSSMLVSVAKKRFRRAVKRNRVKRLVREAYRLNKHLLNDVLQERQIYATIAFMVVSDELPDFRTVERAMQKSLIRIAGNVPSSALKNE
Description: as §1, §2, §3

human RNase P = assay: Activity of partially purified human RNase P (ptRNA processing); type: biochemical; details: FIG. 5; for inhibition of human RNase P: 7.5 μM; for effect on human RNase P activity: concentrations 10-fold greater than the IC50 values for E. coli RNase P
Description: In order to determine if the AAC inhibitors of the present invention cross-react with human RNase P, the activity of a partially purified human enzyme was tested in the absence or presence of various concentrations of NeoR and […].

[3] = molecular target: various bacterial RNase P; assay: RNase P activity assay, various bacterial RNase P; type: biochemical; details: concentration range
Description: as §1, §2, §3

[4] = two single doses of 25 mg/kg body weight for the duration of two hours; cited from earlier work
E. coli RNase P = assay: RNase P activity assay (ptRNA processing), in-vitro reconstituted E. coli RNase P; type: biochemical; details: for inhibition of RNase P processing activity: radiolabeled ptRNA Tyr su3+ substrate, FIG. 3; for effect of poly A RNA on ability to inhibit E. coli RNase P: as much as 1 μM poly A RNA added; for IC50: initial reaction velocities at increasing inhibitor concentrations, FIG. 4a-b, read-out: IC50, inhibition of E. coli RNase P activity
Description: RNase P from E. coli was prepared and purified according to Vioque, A. et al. (1988) J. Mol. Biol. 202:835-848 and Gopalan, V. (1997) J. Mol. Biol. 267:818-829.
ptRNA^Tyrsu3+ was prepared by in vitro transcription of FokI-digested pUC19TyrT [Vioque, A. et al. (1988) J. Mol. Biol. 202:835-848].
RNase P activity was determined in the presence or absence of AAC inhibitors suspended in 50 mM Tris-Hcl (7.2), 5 % (w/v) polyethylene glycol 8000, 1 mM NH4Cl, 10 mM spermidine, 10 mM MgCl2. Reactions were carried under multiple-tumover conditions (for example, 100 nM of radio-labeled ptRNA^Tyrsu3+ and 0.5 nM E. coli RNase P holoenzyme).
Following holoenzyme assembly, AAC inhibitors were added to the reaction mixture and incubated for 5 minutes prior to the addition of [^32P]-ptRNA^Tyrsu3+ substrate. Reactions were allowed to proceed for the indicated times and were terminated by adding a quenching dye [7 M Urea, 10 mM EDTA, 10% (v/v) phenol]. Reaction products were resolved by gel electrophoresis (8% polyacrylamide/7 M Urea) and auto-radiograms were obtained.
as §3

[5] = system: RNase P derived from S. pneumoniae; assay: RNase P activity assay (ptRNA processing), reconstituted S. pneumoniae RNase P; type: biochemical, Streptococcus pneumoniae; details: FIG. 3
Description: as §1, §2, §3

[6] = system: RNP complex formed between HIV TAR RNA and Tat-derived peptide; details: 10-fold excess of tRNA; cited from earlier work

Row | Molecule | inhibition of RNase P processing activity ([1]; 500 nM NeoR) | susceptibility of RNase P activity to the inhibitor ([2]; 500 nM NeoR) | inhibition of human RNase P (human RNase P) | effect on human RNase P activity (human RNase P) | IC50 for inhibition of various bacterial RNase P [3] | toxicity to mice [4] | inhibition of RNase P processing activity (E. coli RNase P; 500 nM NeoR) | effect of poly A RNA on ability to inhibit E. coli RNase P (E. coli RNase P; FIG. 6) | IC50 (E. coli RNase P) | IC50 fold lower than that of the parental aminoglycoside (E. coli RNase P; versus literature value of parental aminoglycoside (Mikkelsen 1999)) | inhibition of RNase P processing activity ([5]; 500 nM NeoR) | inhibition of RNase P specific activity (E. coli RNase P; 10-fold excess concentration over the ptRNA substrate, FIG. 6) | inhibition of RNase P processing activity ([1]; 1500 nM R3G) | susceptibility of RNase P activity to the inhibitor ([2]; 1500 nM R3G) | inhibition of RNase P processing activity (E. coli RNase P; 1500 nM R3G) | effect of tRNA on ability to disrupt the TAR RNA/Tat-derived peptide complex [6] | inhibition of RNase P processing activity ([5]; 1500 nM R3G)
1 | hexa-argininamido-neomycin B [NeoR] | nearly complete inhibition | less susceptible | nearly complete inhibition | largely unaffected | sub-micromolar | not toxic | nearly complete inhibition | failed to alter | 125 nM | 100 fold | nearly complete inhibition |  |  |  |  |  | 
2 | N=C(N)NCCC[C@H](N)C(=O)O [L-Arginine, reference compound] |  |  |  |  |  |  |  |  |  |  |  | did not inhibit |  |  |  |  | 
3 | triargininamido-gentamycin C [R3G] |  |  | nearly complete inhibition | largely unaffected | sub-micromolar |  |  | failed to alter | 300 nM |  |  |  | nearly complete inhibition | less susceptible | nearly complete inhibition | no effect | nearly complete inhibition
